Patent publication US5821118A, “Genes for the subunits of human farnesyl-protein transferase” (Merck & Co., Inc., priority 1995, dated 1998)
Like-named read-outs stand apart in the source and are kept apart here.

What was measured:
human FPTase = target: T1, human FPTase (Homo sapiens, UniProt P49354+P49356); assay: Assay of compounds for FPTase inhibitory activity, once purified human FPTase; type: biochemical
T1 construct: codons for Glutamic acid-Glutamic acid-Phenylalanine-stop were placed after the last codon for the β subunit; made in house; host or cells: E. coli DH5a

Bovine brain FTase = target: T2, Bovine brain FTase (Bos taurus, UniProt P29702+P49355); assay: Assay of compounds for FPTase inhibitory activity, bovine brain FPTase; type: biochemical
T2 construct: an assay employing bovine brain FPTase; from tissue; host or cells: bovine brain
Method: The purified, recombinantly expressed, mammalian FPTase is employed in an assay to determine the inhibitory activity against FPTase mediated farnesylation of Ras by various pharmaceutical compounds. […] The purified mammalian FPTase is then added to the assay mixture and the assay mixture is incubated for a period of time such as 10-30 minutes at 30° C. The assay mixture is then quenched and the Ras protein is separated from free FPP by techniques well known in the art. […] This value may be compared to the relative value of the amount of Ras farnesylated in the absence of the pharmaceutical agent and to the relative value of the amount of Ras farnesylated in the presence of other pharmaceutical agents.
[^3 H]Farnesyl diphosphate (FPP) (20 Ci/mmol) was purchased from New England Nuclear. In general, inhibitory activity assays were carried out at 30° C. A typical assay reaction contained (in a final volume of 50 μL): [^3 H]farnesyl diphosphate, Ras protein (3.5 μM), 50 mM HEPES, pH 7.5, 5 mM MgCl2, 1 mM dithiothreitol, and the compound to be assayed. After thermally preequilibrating the assay mixture, the reaction was initiated by the addition of the purified mammalian FPTase and the reaction was stopped at timed intervals by the addition of 1M HCl in ethanol (1 mL). The quenched reactions were allowed to stand for 15 minutes. After adding 2 mL of 100% ethanol, the mixtures were vacuum filtered through Whatman GF/C filters. Filters were washed four times with 2 mL aliquots of 100% ethanol, mixed with scintillation fluid (10 mL) and then counted in a Beckmann LS3801 scintillation counter.

[1] = Human FTase, Ras protein 3.5 μM, pH 7.5, 30° C, * = alternative substrates (CVIM, CVIL, FPP)
[2] = Bovine brain FTase, Ras protein 3.5 μM, pH 7.5, 30° C, * = alternative substrates (CVIM, CVIL, FPP)

Row | IC50 (human FPTase) [nM] | IC50 (Bovine brain FTase) [nM] | Compound | IC50 (human FPTase; [1]) [nM] | IC50 (Bovine brain FTase; [2]) [nM]
1 | 18 | 20 | CC(C)=CCC/C(C)=C/CC/C(C)=C/C(O)P(=O)(O)O (racemic) [Compound A, (R,S)[1hydroxy-(E,E)-3,7,11-trimethyl-2,6,10-dodeca-trienyl]phosphonic acid] |  | 
2 | 250 | 200 | CC(C)=CCC/C(C)=C/CC/C(C)=C/CO[P@@](=O)(O)OP(=O)(O)O (stereo in doubt) [FPP, farnesyl diphosphate] |  | 
3 | 240 | 200 | CC(C)=CCC/C(C)=C/CC/C(C)=C/CC/C(C)=C/COP(=O)(O)OP(=O)(O)O [GGPP, geranylgeranyl-diphosphate] |  | 
4 |  |  | cysteinylisolleucinyl-phenylalaninyl-methionine [CIFM] | 17 | 10
5 |  |  | cysteinylvalinyl-isolleucinyl-leucine (CVIL) | 6200 | 20000
